Source: US8445491B2, “Wnt protein signalling inhibitors” (The Board of Regents of the University of Texas System, priority 2008, dated 2013)

These compounds were tested on Wnt/β-catenin pathway (assay: luciferase-based reporter assay (SuperTopFlash) measuring Wnt/β-catenin-dependent transcriptional response, L-Wnt-STF cells). Conditions: Mus musculus; Table 1; luciferase reporter of Wnt/β-catenin-dependent transcriptional response.
Type: cell-based
Description: Tables 1 and 2 provides further examples of such compounds, as well as their activities as determined by a luciferase-based reporter assay that measures Wnt/β-catenin-dependent transcriptional response.
For the “primary screen” and “dose-dependent test,” ˜5,000 L-Wnt-STF cells were seeded into each well of a white opaque 384 well plate and individual compounds from the UTSW chemical library added 24 hrs later to each well at a final concentration of 2.5 μM (primary screen) or otherwise indicated concentrations. Luciferase activities were measured 24 hrs later. To identify FL inhibitors and compounds that blocked protein secretion, L-cells were transiently transfected with CMV-FL and CMV-GL constructs and immediately incubated with compounds. Culture medium and cell lysates were analyzed for GL and FL activities, respectively, after 24 hrs. For the “exogenous Wnt test,” Wnt3A-containing conditioned medium, prepared following the protocol provided ATCC, was applied to HEK293 cells transiently transfected with STF and control reporters. For Hedgehog and Notch tests, NIH-3T3 cells or L-cells, respectively, were transiently transfected with indicated reporter constructs and immediately incubated with compounds. Luciferase activities were measured 24 hrs later. The “Wnt secretion test” was performed in L-cells transiently transfected with the Wnt-GL expression construct and immediately incubated with compounds. Culture medium and cellular lysate were analyzed 48 hrs later for GL activity. Assays used to calculate IC50's for compounds were performed as before in L-Wnt-STF cells.
A brief overview of the screen is as follows: mouse L-cells that stably harbor a well-characterized Wnt/β-catenin pathway-responsive firefly luciferase (FL) reporter plasmid (SuperTopFlash or STF), a control reporter, and an expression construct encoding the Wnt protein, Wnt3A, were exposed to individual compounds for two days prior to measurement of reporter activities. Chemicals that altered FL but not control reporter activity were selected for further testing (FIG. 1; FIG. 8). The screening strategy allows for identification of compounds that either potentially increase or decrease Wnt/β-catenin pathway activity.

Compound	EC50 [µM]
Cc1ccc2cccnc2c1NC(=O)c1ccc(N2C(=O)[C@@H]3[C@@H]4C=CC(C4)[C@@H]3C2=O)cc1 [Compound 3]	0.8
O=C(NC1CCCc2cccnc21)c1ccc(N2C(=O)[C@@H]3[C@@H]4C=CC(C4)[C@@H]3C2=O)cc1 (stereo partly shown) [Compound 4]	10
O=C(Nc1cccc(F)c1F)c1ccc(N2C(=O)[C@@H]3[C@@H]4C=CC(C4)[C@@H]3C2=O)cc1 [Compound 16]	> 25
O=C(Nc1ccc(F)cc1F)c1ccc(N2C(=O)[C@@H]3[C@@H]4C=CC(C4)[C@@H]3C2=O)cc1 [Compound 17]	9
O=C(Nc1ccc(Cl)cc1Cl)c1ccc(N2C(=O)[C@@H]3[C@@H]4C=CC(C4)[C@@H]3C2=O)cc1 [Compound 18]	10
O=C(Nc1ccc(Br)cc1Br)c1ccc(N2C(=O)[C@@H]3[C@@H]4C=CC(C4)[C@@H]3C2=O)cc1 [Compound 19]	> 25
O=C(Nc1cc(F)ccc1F)c1ccc(N2C(=O)[C@@H]3[C@@H]4C=CC(C4)[C@@H]3C2=O)cc1 [Compound 20]	> 25
O=C(Nc1c(F)cccc1F)c1ccc(N2C(=O)[C@@H]3[C@@H]4C=CC(C4)[C@@H]3C2=O)cc1 [Compound 21]	> 25
O=C(Nc1ccc(F)c(F)c1)c1ccc(N2C(=O)[C@@H]3[C@@H]4C=CC(C4)[C@@H]3C2=O)cc1 [Compound 22]	3
O=C(Nc1ccc(Cl)c(Cl)c1)c1ccc(N2C(=O)[C@@H]3[C@@H]4C=CC(C4)[C@@H]3C2=O)cc1 [Compound 23]	5
O=C(Nc1cc(F)cc(F)c1)c1ccc(N2C(=O)[C@@H]3[C@@H]4C=CC(C4)[C@@H]3C2=O)cc1 [Compound 25]	> 25
O=C(Nc1ccc(C(F)(F)F)cc1)c1ccc(N2C(=O)[C@@H]3[C@@H]4C=CC(C4)[C@@H]3C2=O)cc1 [Compound 28]	> 25
O=C(NCc1ccccn1)c1ccc(N2C(=O)[C@@H]3[C@@H]4C=CC(C4)[C@@H]3C2=O)cc1 [Compound 30]	> 25
O=C(NCc1cccnc1)c1ccc(N2C(=O)[C@@H]3[C@@H]4C=CC(C4)[C@@H]3C2=O)cc1 [Compound 31]	> 25
O=C(NCc1ccncc1)c1ccc(N2C(=O)[C@@H]3[C@@H]4C=CC(C4)[C@@H]3C2=O)cc1 [Compound 32]	10
O=C(NC1CCCCC1)c1ccc(N2C(=O)[C@@H]3[C@@H]4C=CC(C4)[C@@H]3C2=O)cc1 [Compound 35]	> 25

Other lines, results leading:

EC50 [µM]	Compound
1	COc1ccccc1NC(=O)c1ccc(N2C(=O)[C@@H]3[C@@H]4C=CC(C4)[C@@H]3C2=O)cc1 [Compound 5]
> 25	O=C(Nc1ccccc1)c1ccc(N2C(=O)[C@@H]3[C@@H]4C=CC(C4)[C@@H]3C2=O)cc1 [Compound 6]
> 25	O=C(Nc1ccccc1F)c1ccc(N2C(=O)[C@@H]3[C@@H]4C=CC(C4)[C@@H]3C2=O)cc1 [Compound 7]
> 25	O=C(Nc1ccccc1Cl)c1ccc(N2C(=O)[C@@H]3[C@@H]4C=CC(C4)[C@@H]3C2=O)cc1 [Compound 8]
> 25	O=C(Nc1ccccc1Br)c1ccc(N2C(=O)[C@@H]3[C@@H]4C=CC(C4)[C@@H]3C2=O)cc1 [Compound 9]
> 25	O=C(Nc1cccc(F)c1)c1ccc(N2C(=O)[C@@H]3[C@@H]4C=CC(C4)[C@@H]3C2=O)cc1 [Compound 10]
> 25	O=C(Nc1cccc(Cl)c1)c1ccc(N2C(=O)[C@@H]3[C@@H]4C=CC(C4)[C@@H]3C2=O)cc1 [Compound 11]
9	O=C(Nc1cccc(Br)c1)c1ccc(N2C(=O)[C@@H]3[C@@H]4C=CC(C4)[C@@H]3C2=O)cc1 [Compound 12]
4	O=C(Nc1ccc(F)cc1)c1ccc(N2C(=O)[C@@H]3[C@@H]4C=CC(C4)[C@@H]3C2=O)cc1 [Compound 13]
3	O=C(Nc1ccc(Cl)cc1)c1ccc(N2C(=O)[C@@H]3[C@@H]4C=CC(C4)[C@@H]3C2=O)cc1 [Compound 14]
1	O=C(Nc1ccc(Br)cc1)c1ccc(N2C(=O)[C@@H]3[C@@H]4C=CC(C4)[C@@H]3C2=O)cc1 [Compound 15]
10	O=C(Nc1ccc(Br)c(Br)c1)c1ccc(N2C(=O)[C@@H]3[C@@H]4C=CC(C4)[C@@H]3C2=O)cc1 [Compound 24]
> 25	O=C(Nc1ccccc1C(F)(F)F)c1ccc(N2C(=O)[C@@H]3[C@@H]4C=CC(C4)[C@@H]3C2=O)cc1 [Compound 26]
20	O=C(Nc1cccc(C(F)(F)F)c1)c1ccc(N2C(=O)[C@@H]3[C@@H]4C=CC(C4)[C@@H]3C2=O)cc1 [Compound 27]
20	O=C(NCc1ccccc1)c1ccc(N2C(=O)[C@@H]3[C@@H]4C=CC(C4)[C@@H]3C2=O)cc1 [Compound 29]

Same assay, conditions: Mus musculus; Table 2 (50-52, IWR-8 to IWR-14)

EC50 [µM]	Compound
> 25	CN(C(=O)c1ccc(N2C(=O)[C@@H]3[C@@H]4C=CC(C4)[C@@H]3C2=O)cc1)c1cccc2cccnc12 [Compound 50]
0.2	O=C(Nc1cccc2cccnc12)c1ccc(N2C(=O)[C@@H]3[C@@H]4CCC(C4)[C@@H]3C2=O)cc1 [Compound 52]
> 25	O=C1[C@@H]2[C@@H]3C=CC(C3)[C@@H]2C(=O)N1c1ccc(S(=O)(=O)Nc2cccc3cccnc23)cc1 [IWR-8]
> 25	O=C1[C@@H]2[C@@H]3C=CC(C3)[C@@H]2C(=O)N1c1ccc(S(=O)(=O)Nc2ccccc2Br)cc1 [IWR-9]
2	O=C1[C@@H]2[C@@H]3C=CC(C3)[C@@H]2C(=O)N1c1ccc(S(=O)(=O)Nc2cccc(Br)c2)cc1 [IWR-10]
3	O=C1[C@@H]2[C@@H]3C=CC(C3)[C@@H]2C(=O)N1c1ccc(S(=O)(=O)Nc2ccc(Br)cc2)cc1 [IWR-11]
10	COc1ccccc1NS(=O)(=O)c1ccc(N2C(=O)[C@@H]3[C@@H]4C=CC(C4)[C@@H]3C2=O)cc1 [IWR-12]
6	COc1cccc(NS(=O)(=O)c2ccc(N3C(=O)[C@@H]4[C@@H]5C=CC(C5)[C@@H]4C3=O)cc2)c1 [IWR-13]
10	COc1ccc(NS(=O)(=O)c2ccc(N3C(=O)[C@@H]4[C@@H]5C=CC(C5)[C@@H]4C3=O)cc2)cc1 [IWR-14]

Compound	EC50 [µM]
O=C(Nc1cccc2cccnc12)c1ccc(N2C(=O)[C@@H]3[C@H]4C=CC(C4)[C@@H]3C2=O)cc1 [Compound 51]	5

Each compound was assayed on caudal fin regeneration in zebrafish (assay: caudal fin regeneration assay in zebrafish). Conditions: zebrafish, FIG. 25, concentration not given.
Type: in vivo
Description: FIG. 25. […] Arrows indicate the points of resection.
6 month-old zebrafish were incubated 8 or 14 days at 28.5° C. in aquarium water supplemented with 10 μM IWR or in 0.1% DMSO as a control. Fish were fed standard diet, and solutions were changed daily. At the end of the exposure, zebrafish were incubated in 1 mM BrdU in aquarium water for 2 hrs at room temperature, then washed several times in aquarium water, anesthetized with 0.1% Tricaine, and fixed in 4% paraformaldehyde for 48 hrs at 4° C. The intestine was dissected out, dehydrated, paraffin embedded and sectioned at […] intervals. Sections were stained with Hematoxylin and Eosin or processed for BrdU immunohistochemistry as described (Shepard et al., 2005). Sections from 8 animals each from IWR and DMSO groups were independently scored by four blinded observers. The total number of intestinal folds and total number of BrdU-positive nuclei in the mid and distal sections of the intestine were counted from each section. For caudal fin regeneration assays, zebrafish, 3-6 months of age, were anaesthetized in 0.2% Tricaine and half of the fin was resected using a razor blade to remove Amputees were reared at 31° C. in tanks containing either 300 ml of water with DMSO or IWR (10 μM). Water and compounds were replenished daily for a total assay period of 4 days.

Compound	inhibition of fin regeneration
O=C(Nc1ccc(F)cc1)c1ccc(N2C(=O)[C@@H]3[C@@H]4C=CC(C4)[C@@H]3C2=O)cc1 [Compound 13]	partial inhibition
O=C(Nc1ccc(F)cc1F)c1ccc(N2C(=O)[C@@H]3[C@@H]4C=CC(C4)[C@@H]3C2=O)cc1 [Compound 17]	only retarded the growth of the tail fin
